From article PMC11093748, “De novo identification of CD4^+ T cell epitopes” (Nature Methods, 2024)

Experiments:
Format in all cases: cell-based, mouse
[1] = test system: pooled TCR1, TCR2, TCR3, TCR5, TCR7, TCR24, TCR37 with one TCR left out; assay: Multiplexed TCR/library dropout screen, individual ES of each leave-one-out pool; details: for INDIVIDUAL ES LOO_TCR1: leave-one-out pool without TCR1; for INDIVIDUAL ES LOO_TCR2: leave-one-out pool without TCR2; for INDIVIDUAL ES LOO_TCR3: leave-one-out pool without TCR3; for INDIVIDUAL ES LOO_TCR5: leave-one-out pool without TCR5; for INDIVIDUAL ES LOO_TCR7: leave-one-out pool without TCR7; for INDIVIDUAL ES LOO_TCR24: leave-one-out pool without TCR24; for INDIVIDUAL ES LOO_TCR37: leave-one-out pool without TCR37
Text: Supplement 41592_2024_2255_MOESM7_ESM.xlsx, sheet "leave-one-out analysis" | column: LOO_TCR1; LOO_TCR2; LOO_TCR3; LOO_TCR5; LOO_TCR7; LOO_TCR24; LOO_TCR37

TCR34 = assay: I-Ag7 SABR-II library screen, enrichment score; details: TCR_Mean minus PREDICTED_TCR (slope 0.916696, intercept 2.04427e-5 on LIB_Mean), TCR 34, run PZ57
Text: (§1) We then asked whether SABR-IIs could be used to present a library of epitopes for CD4^+ T cell antigen discovery. To that end, we constructed a SABR-II library to present epitopes derived from pancreatic islets in I-Ag7 by curating a list of 4,075 published epitopes from the Immune Epitope Database (iedb.org)[50] and a study by Wan et al.[51] (Supplementary Table 1). Of note, this defined library consisted of unmodified epitopes from endogenous proteins, synthetic mimotopes, deamidated epitopes and hybrid insulin peptides (HIPs) that arise from post-translational fusion and are not genetically encoded in vivo[52],[53]. The epitope library was inserted into the I-Ag7 SABR-II backbone through pooled oligonucleotide synthesis, amplification and ligation-free cloning (Extended Data Fig. 3a). The I-Ag7 SABR-II-library was then expressed in NFAT–GFP Jurkat cells. We confirmed that after sequencing, the library accounted for a mean of 708 reads per epitope (Extended Data Fig. 3b). As a proof of concept, we performed co-incubation assays with Jurkat cells expressing the BDC2.5 TCR and sorted the top 1–2% of GFP^+CD69^+ cells at a rate of ~20 min per replicate with three replicates per TCR. We extracted the genomic DNA from sorted cells, amplified the SABR portion of the integrated proviruses and subjected the amplicons to Illumina sequencing (Extended Data Fig. 3c,d). The 1–2% sort gate represents >50-fold enrichment of cognate epitopes with minimal loss of signal (Extended Data Fig. 3e–h). Sequence reads were aligned to the I-Ag7 SABR-II backbone and the corresponding epitopes were scored based on their read counts. For each TCR under investigation, an enrichment score (ES) was determined for all the epitopes in a library. In each experiment, three replicates of a sort with TCR-expressing Jurkat cells were performed and reads were counted post-sequencing. In addition, three replicates of the unsorted library were also sequenced. A linear regression model was built using the unsorted library counts and used to determine the expected abundance of each epitope in the library. The ES was calculated based on the difference between the measured and the expected abundance of each epitope on a per-TCR basis (Fig. 1e). Based on ES values, two quantitative thresholds were used to determine putative cognate epitopes of a given TCR. A high-confidence zone containing clear outliers with a high ES and a low-confidence zone containing weak outliers with a moderately high ES were determined (Fig. 1e). This two-tiered strategy was used to call putative hits from screens. All the top-scoring epitopes for the BDC2.5 TCR were known BDC2.5 ligands containing the WXRM(D/E) motif (Fig. 1f,g, enriched ligands in red), a well-characterized trait of the BDC2.5 TCR[43],[54]–[56]. Across several independent experiments there was limited variation in ES values for the same TCRs and several epitopes fell into high- or low-confidence zones consistently (Extended Data Fig. 4a). Using a different TCR that was isolated from NOD mice, 4-8Ins[57], which recognized the InsB9:23 epitope ([…]), we observed a similar pattern of ES for cognate epitopes (Extended Data Fig. 4b).
(§2) We performed systematic screening of the cloned TCRs against the I-Ag7 SABR-II library. Several TCRs along with a positive control (such as BDC2.5 or 4-8Ins) were screened individually against the library for each sort (Extended Data Fig. 6a and Supplementary Table 4). High- and low-confidence ES zones for each screened TCR were defined by the ES values of the control TCR’s cognate epitopes. For all putative cognate epitopes, single SABR-IIs were constructed, expressed in NFAT–GFP Jurkat cells and used for co-incubation with the corresponding TCRs. Co-incubation assays that yielded a GFP signal higher than that obtained in assays with no TCR were determined to be positive and the epitopes deemed true cognate ligands (Extended Data Fig. 6b,c). […]

TCR1 = assay: I-Ag7 SABR-II library screen, enrichment score; details: sheet TCR1-PZ44; ES = TCRObserved - TCRPredicted; TCRPredicted = LIBObserved x SLOPE + INTERCEPT; SLOPE 0.917532, INTERCEPT 2.02377e-5
Text: as §1, §2

TCR17B = assay: I-Ag7 SABR-II library screen, enrichment score; details: TCR_Mean minus PREDICTED_TCR (from LIB_Mean, SLOPE 0.911347, INTERCEPT 2.17553e-5), PZ52
Text: as §1, §2

TCR17A = assay: I-Ag7 SABR-II library screen, enrichment score; details: TCR_Mean minus PREDICTED_TCR (from LIB_Mean, SLOPE 0.925966, INTERCEPT 1.81678e-5), PZ52
Text: as §1, §2

TCR7 = assay: I-Ag7 SABR-II library screen, enrichment score
Text: as §1, §2

TCR2 = assay: I-Ag7 SABR-II library screen, enrichment score; details: sheet TCR2-PZ44; ES = TCRObserved - TCRPredicted; TCRPredicted = LIBObserved x SLOPE + INTERCEPT; SLOPE 0.908797, INTERCEPT 2.23811e-5
Text: as §1, §2

TCR36 = assay: I-Ag7 SABR-II library screen, enrichment score; details: TCR_Mean minus PREDICTED_TCR (slope 0.914754, intercept 2.09193e-5 on LIB_Mean), TCR 36, run PZ57
Text: as §1, §2

TCR3 = assay: I-Ag7 SABR-II library screen, enrichment score
Text: as §1, §2

TCR32 = assay: I-Ag7 SABR-II library screen, enrichment score; details: TCR_Mean minus PREDICTED_TCR (slope 0.962506, intercept 9.20103e-6 on LIB_Mean), TCR 32, run PZ98
Text: as §1, §2

[2] = I-Ag7 library, one biological experiment
[3] = sheet TCR7-PZ47, ES = TCRObserved - TCRPredicted, TCRPredicted = LIBObserved x SLOPE + INTERCEPT, SLOPE 0.961246, INTERCEPT 9.5102e-6
[4] = sheet TCR3-PZ37, ES = TCRObserved - TCRPredicted, TCRPredicted = LIBObserved x SLOPE + INTERCEPT, SLOPE 0.907522, INTERCEPT 2.2694e-5

Row | Sequence | INDIVIDUAL ES LOO_TCR1 [1] | INDIVIDUAL ES LOO_TCR2 [1] | INDIVIDUAL ES LOO_TCR3 [1] | INDIVIDUAL ES LOO_TCR5 [1] | INDIVIDUAL ES LOO_TCR7 [1] | INDIVIDUAL ES LOO_TCR24 [1] | INDIVIDUAL ES LOO_TCR37 [1] | Enrichment score (TCR34) | Enrichment score (TCR1) | Enrichment score (TCR17B) | Enrichment score (TCR17A) | Enrichment score (TCR7; [2]) | Enrichment score (TCR7; [3]) | Enrichment score (TCR2) | Enrichment score (TCR36) | Enrichment score (TCR3; [2]) | Enrichment score (TCR3; [4]) | Enrichment score (TCR32)
1 | AAVEEGIVAGGGVTLL | -4.978e-5 | -3.795e-6 | 1.5842e-5 | 3.701e-5 | 1.545e-5 | -1.25e-6 | -5.451e-6 | -0.0002018 | 0.0002622 | -0.0001643 | -0.0001329 | 1.142e-5 | 1.142e-5 | 9.944e-5 | -0.0001187 | -0.00015 | -0.00015 | 3.811e-5
2 | AEKVRNLPAGHGLNAQ | 5.319e-5 | -0.0001199 | -3.193e-5 | 1.335e-5 | -1.1271e-5 | -8.015e-5 | -1.6913e-5 | 6.942e-5 | 9.239e-5 | -3.983e-5 | -0.0001276 | 5.397e-5 | 5.397e-5 | 0.0001311 | -6.905e-5 | -2.569e-5 | -2.569e-5 | 4.971e-5
3 | AGGVAVIKAGAATEV | 2.749e-5 | 9.403e-5 | -4.985e-5 | 2.576e-5 | 3.872e-6 | -1.653e-5 | 5.688e-5 | -0.0001037 | 3.28e-9 | 5.455e-5 | -5.895e-5 | -2.964e-5 | -2.964e-5 | -1.7e-5 | -1.016e-5 | -3.191e-5 | -3.191e-5 | 9.791e-5
4 | AKAAVEEGIVAGGGV | -3.982e-5 | -3.046e-5 | -2.304e-5 | -3.485e-6 | 9.492e-5 | 4.6789e-5 | 6.867e-6 | 3.575e-5 | -8.988e-5 | 0.0004148 | 7.661e-5 | 0.0001251 | 0.0001251 | -6.466e-5 | -3.854e-5 | -0.0001294 | -0.0001294 | -4.13e-5
5 | ALVREGLRNVAAGANP | -1.224e-5 | -1.224e-5 | -1.224e-5 | -1.224e-5 | -1.224e-5 | -1.224e-5 | -1.224e-5 | -2.044e-5 | -2.024e-5 | -2.185e-5 | -1.826e-5 | -9.699e-6 | -9.699e-6 | -2.238e-5 | -2.092e-5 | -2.328e-5 | -2.328e-5 | -9.201e-6
